Drawing on a melting point compilation (Tetko et al.; mined from patent text by program, amines drawn as free bases though some values may be those of a salt), this text covers melting point for 25 compounds.

`Cc1cccc(C2(c3cccc(C)c3)CCC(=O)[C@H]3CN(C(=O)Cc4ccccc4)C[C@H]32)c1` (racemic): the melting point is 207 °C.
With `NC1=NN(c2cccc(Cl)c2)C(c2ccccc2)C1` (stereo not given), the melting point was 164 to 165 °C.
Consider `N#Cc1c[nH]c2cc(Cl)c([N+](=O)[O-])cc2c1=O`, for which the melting point was over 300 °C.
`CCCCc1nc2cccc(CCO)c2n1Cc1ccccc1Cl` gave a melting point of 130 to 132 °C.
As for `CCCN(CCC)CCc1cccc2[nH]c(=O)[nH]c12`, the figure is 189 to 192 °C; as for `Cc1cc(Oc2ccc(Cl)cc2Cl)ccc1C#N`, 52 to 55 °C; as for `Cc1cc(NC(=O)N(C)C)cc(C)c1S(=O)(=O)C[N+](=O)[O-]`, 205 to 206 °C.
As for `Cc1ccc2oc3ccc(C)cc3c2c1`, the figure is 62 to 64 °C.
Turning to `COc1ccc(C2(CC3CO3)S(=O)(=O)CCCS2(=O)=O)cc1OC` (stereo not given), the melting point fell in the range of 175 to 176 °C.
As for `O=C(c1ccccn1)c1cc2ccncc2[nH]1`, the melting point lay in the range of 219 to 222 °C.
Consider `Cc1cccc(C2=CCN(CCCn3c(=O)[nH]c4c(Cl)cccc4c3=O)CC2)c1`, for which the melting point lay in the range of 214 to 216 °C.
`Cc1ccc(S(=O)(=O)OCCc2cccc3c(S(=O)(=O)c4ccccc4)c[nH]c23)cc1` registered a melting point of 142 to 145 °C.
Turning to `OCc1cccc2c(-c3ccc(Br)cc3)nccc12`, the melting point amounted to 226 °C.
`COc1ccc2nccc([C@@H]3CN(CCCNS(=O)(=O)c4ccc5c(c4)NC(=O)CS5)C(=O)O3)c2c1` displayed a melting point of 135 to 140 °C.
On to `O=C(O)CCCCCc1nc2ccccc2s1`, for which the melting point is 71 to 72 °C.
With `O=c1c2c(Cc3ccccc3C(F)(F)F)n[nH]c2c2cccnc2n1-c1ccccc1`, the melting point fell in the range of 292 to 294 °C.
Compound `CC(=O)OCC1OC(n2c(Cl)nc3cc(Cl)c(Cl)cc32)C(OC(C)=O)C1OC(C)=O` (stereo not given) returned a melting point of 145 to 146 °C.
For `CCN1C(=O)C(C)(C)C(=O)N(C)c2cc(CN(CCn3cc(C)c4occc4c3=O)Cc3ncccc3N)ccc21`, the melting point lay in the range of 188 to 192 °C.
In turn, `Oc1ccc(F)cc1Cc1ccc(F)cc1` had a melting point of 134 to 139 °C.
Then `CCCc1nc2c(N)nc3ccccc3c2n1CC1(O)CCS(=O)(=O)CC1`, with over 250 °C.
Consider `O=C(Nc1ccc(C(=O)N2Cc3cccn3Cc3ccccc32)cc1)c1ccccc1F`, for which the melting point fell in the range of 257 to 260 °C.
As for `CCCCc1oc2ccccc2c1-c1ncc(-c2ccc3cc(OCc4ccc(C(=O)O)cc4C(=O)O)ccc3c2)o1`, the figure is 285 to 287 °C; as for `O=C1CCCc2[nH]c3ccc(OCc4ccccc4)cc3c21`, 235 to 237 °C.
In turn, `CCCCCCn1c2cc(CO)ccc2c2ccc(CO)cc21` had a melting point of 98 to 99 °C.
Turning to `CCCCCCCCc1nc2c(N)nc3ccccc3c2n1CCOCc1ccccc1`, the melting point is 110 to 111 °C.

What is called melting point is the temperature of the solid-liquid transition.
